One experiment addresses T1, human androgen receptor (Homo sapiens, UniProt P10275, T878A).
T1 construct: The human androgen receptor was expressed in LNCAP cells; endogenous in cells; host or cells: LNCaP cells (supernatant of homogenate)
T1 sequence (P10275 1-920 T878A): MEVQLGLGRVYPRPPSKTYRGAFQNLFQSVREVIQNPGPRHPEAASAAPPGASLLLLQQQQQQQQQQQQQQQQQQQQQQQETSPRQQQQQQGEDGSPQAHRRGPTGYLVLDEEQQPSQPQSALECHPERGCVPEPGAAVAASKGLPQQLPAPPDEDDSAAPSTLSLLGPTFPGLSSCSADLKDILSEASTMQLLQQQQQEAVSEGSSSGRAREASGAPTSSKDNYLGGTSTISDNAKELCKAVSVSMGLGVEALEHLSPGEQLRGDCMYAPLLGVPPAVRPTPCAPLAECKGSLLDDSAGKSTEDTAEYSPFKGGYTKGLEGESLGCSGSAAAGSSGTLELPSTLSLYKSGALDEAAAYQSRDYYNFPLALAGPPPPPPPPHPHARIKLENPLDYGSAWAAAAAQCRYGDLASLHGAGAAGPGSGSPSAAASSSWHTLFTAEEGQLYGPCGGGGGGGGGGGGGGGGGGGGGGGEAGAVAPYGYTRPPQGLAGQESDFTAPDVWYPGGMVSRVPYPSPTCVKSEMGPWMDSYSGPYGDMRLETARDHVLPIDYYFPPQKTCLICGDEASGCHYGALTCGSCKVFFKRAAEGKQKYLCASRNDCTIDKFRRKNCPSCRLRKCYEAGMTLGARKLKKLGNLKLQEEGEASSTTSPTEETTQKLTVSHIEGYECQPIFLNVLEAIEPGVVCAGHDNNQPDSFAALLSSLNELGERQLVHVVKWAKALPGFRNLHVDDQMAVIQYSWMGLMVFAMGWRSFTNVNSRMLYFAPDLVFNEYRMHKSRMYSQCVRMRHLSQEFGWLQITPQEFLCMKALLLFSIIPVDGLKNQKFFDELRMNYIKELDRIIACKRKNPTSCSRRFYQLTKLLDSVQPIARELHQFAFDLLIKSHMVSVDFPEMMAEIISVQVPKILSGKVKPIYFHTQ
As to the kind of experiment: Human Androgen Receptor (AR) Binding. To be noted: AR Binding Activity Ki (μM). As for the experimental part: Tissue Preparation: The human androgen receptor was expressed in LNCAP cells which were cultured and harvested by trypsinization from T-175 flasks. The frozen pellet was thawed and resuspended by sonication, then diluted to the appropriate concentration. The homogenate was centrifuged @ 48,000 g for 10 min at 4° C. The supernatant was used. The protein was determined. The tissue was diluted to 0.325 mg/mL with assay buffer so that each tube received 65 μg of protein, or the final assay concentration was 0.260 mg/mL.
Buffers: 25 mM HEPES pH7.4; 1.0 mM EDTA; 10 mM sodium molybdate; 10% Glycerol; 0.5 mM PFSM (dissolved PMSF in EtOH first, before adding to remaining buffer).
Binding Reaction: (Liao, et al. “The Use of a Hydroxylapatite-Filter Steroid Receptor Assay Method in the Study of the Modulation of Androgen Receptor Interaction.” J. Steroid Biochem. (1984), 20:11-17 (with modifications)). […] The binding reaction was initiated with the addition of tissue, and was incubated at 0-4° C. (in refrigerator) for 18-22 h (overnight). The binding reaction was terminated by rapid filtration of the tube contents onto 0.1% PEI treated GF/B filters. The assay tubes were rinsed once with ice-cold […] HEPES, then rapidly rinsed with 6×1 mL/tube of the same wash buffer. Radioactivity trapped on the filters was assessed using liquid scintillation spectrophotometry after soaking the filers for at least 1 h in scintillation cocktail. […] Specific binding was calculated from the difference between the total and non-specific binding. IC50 values were determined by plotting specific binding as a function of test-compound concentration.

Another experiment addresses T2, Neurokinin NK3 (h) (Homo sapiens, UniProt P29371).
T2 construct: expressed in transfected cells; host or cells: CHO cells
T2 sequence (P29371 1-465): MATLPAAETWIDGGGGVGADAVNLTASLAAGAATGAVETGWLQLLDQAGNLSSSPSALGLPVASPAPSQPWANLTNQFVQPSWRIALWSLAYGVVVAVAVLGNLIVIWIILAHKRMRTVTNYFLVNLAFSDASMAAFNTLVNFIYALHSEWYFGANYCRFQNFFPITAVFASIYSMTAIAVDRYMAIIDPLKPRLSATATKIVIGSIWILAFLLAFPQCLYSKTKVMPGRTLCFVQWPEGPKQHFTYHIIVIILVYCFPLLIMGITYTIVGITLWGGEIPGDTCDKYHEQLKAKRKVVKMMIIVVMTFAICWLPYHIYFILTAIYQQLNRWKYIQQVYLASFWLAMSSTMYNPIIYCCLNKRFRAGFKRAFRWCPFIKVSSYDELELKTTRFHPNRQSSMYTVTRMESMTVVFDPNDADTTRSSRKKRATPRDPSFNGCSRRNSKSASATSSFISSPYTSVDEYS
The experiment is described as follows: Binding NK3 (h) (aa). The note with it: read-out: % Inhibition of Control Specific Binding @ 10 μM. As for the experimental part: (§1) Radioligand binding assay methods utilized to measure the activity of compounds of the invention will be familiar to those skilled in the art. In each assay case, the assay components such as, for example, the cell-type, ligand, reference compound and the like, will be familiar to practitioners of such an assay.
(§2) Analysis and Expression of Results: Compounds of the invention were tested in the biochemical assays and percent inhibition of specific binding was determined. The specific ligand binding to the receptors is defined as the difference between the total binding and the nonspecific binding determined in the presence of an excess of unlabelled ligand. The results are expressed as a percent inhibition of control specific binding (100−((measured specific binding/control specific binding)×100)) obtained in the presence of test compounds.

Another experiment deals with T3, dopamine transporter (h) (Homo sapiens, UniProt Q01959).
T3 construct: expressed in transfected cells; host or cells: CHO cells
T3 sequence (Q01959 whole entry): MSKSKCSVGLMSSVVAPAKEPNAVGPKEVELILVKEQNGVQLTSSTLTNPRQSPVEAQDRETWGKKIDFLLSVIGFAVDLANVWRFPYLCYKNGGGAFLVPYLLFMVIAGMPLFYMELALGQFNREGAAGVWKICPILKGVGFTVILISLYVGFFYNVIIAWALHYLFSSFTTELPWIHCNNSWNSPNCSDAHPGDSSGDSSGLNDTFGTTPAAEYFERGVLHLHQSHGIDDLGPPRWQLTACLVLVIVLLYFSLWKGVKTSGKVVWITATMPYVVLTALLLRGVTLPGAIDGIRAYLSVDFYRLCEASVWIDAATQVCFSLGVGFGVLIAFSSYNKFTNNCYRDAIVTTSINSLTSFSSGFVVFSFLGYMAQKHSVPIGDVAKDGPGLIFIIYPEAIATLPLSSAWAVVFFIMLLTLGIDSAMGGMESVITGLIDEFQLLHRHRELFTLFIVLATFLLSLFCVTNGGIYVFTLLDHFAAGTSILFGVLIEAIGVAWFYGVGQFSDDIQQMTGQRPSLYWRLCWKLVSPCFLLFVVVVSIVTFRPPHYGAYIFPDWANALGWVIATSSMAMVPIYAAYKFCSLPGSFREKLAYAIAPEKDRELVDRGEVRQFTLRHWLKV
As to the kind of experiment: Binding dopamine transporter (h) (aa). The note with it: read-out: % Inhibition of Control Specific Binding @ 10 μM. As for the experimental part:
as §1, §2

The target in the next experiment is T4, Histamine H1 (h) (Homo sapiens, UniProt P35367).
T4 construct: expressed in transfected cells; host or cells: HEK-293 cells
T4 sequence (P35367 whole entry): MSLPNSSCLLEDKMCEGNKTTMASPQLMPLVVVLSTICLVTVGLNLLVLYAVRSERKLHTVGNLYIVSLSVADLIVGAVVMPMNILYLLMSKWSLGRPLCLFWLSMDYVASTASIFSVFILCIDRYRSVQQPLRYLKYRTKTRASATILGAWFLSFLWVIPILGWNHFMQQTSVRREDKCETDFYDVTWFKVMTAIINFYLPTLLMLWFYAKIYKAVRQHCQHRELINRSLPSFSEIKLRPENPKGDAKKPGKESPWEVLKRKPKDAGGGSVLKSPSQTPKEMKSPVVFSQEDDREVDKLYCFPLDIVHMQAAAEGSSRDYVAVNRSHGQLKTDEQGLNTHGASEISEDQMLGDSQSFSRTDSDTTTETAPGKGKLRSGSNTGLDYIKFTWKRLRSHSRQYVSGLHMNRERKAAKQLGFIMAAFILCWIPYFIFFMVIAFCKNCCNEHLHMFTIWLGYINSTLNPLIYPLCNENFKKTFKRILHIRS
As to the kind of experiment: Binding H1 (h) (aa). The note with it: read-out: % Inhibition of Control Specific Binding @ 10 μM. The method, then:
as §1, §2

A further experiment relates to 5-HT (ns). As to the kind of experiment: Binding 5-HT (ns) (ag). The arrangement: species or system rat. The method, then:
as §1, §2

The next experiment addresses T5, Neurokinin NK1 (h) (Homo sapiens, UniProt P25103).
T5 construct: (endogenous); endogenous in cells; host or cells: U-373MG cells
As to the kind of experiment: Binding NK1 (h) (ag). The note with it: read-out: % Inhibition of Control Specific Binding @ 10 μM. The method, then:
as §1, §2

In a further experiment the test system is P2X. The experiment is described as follows: Binding P2X (ag). The arrangement: species or system rat. The method, then:
as §1, §2

The mark [1] stands for this setting: first column, Reference Compound Mibolerone.
Where [2] appears, read: second column, Reference Compound Mibolerone.
[3] abbreviates: Reference Compound Methyltrienolone.

Broadly, the Ki is the equilibrium dissociation constant of an inhibitor or competing ligand from its target. A high value points to lower affinity. In general, inhibition refers to the relative decrease from the control value, in per cent.

T5 sequence (P25103 whole entry): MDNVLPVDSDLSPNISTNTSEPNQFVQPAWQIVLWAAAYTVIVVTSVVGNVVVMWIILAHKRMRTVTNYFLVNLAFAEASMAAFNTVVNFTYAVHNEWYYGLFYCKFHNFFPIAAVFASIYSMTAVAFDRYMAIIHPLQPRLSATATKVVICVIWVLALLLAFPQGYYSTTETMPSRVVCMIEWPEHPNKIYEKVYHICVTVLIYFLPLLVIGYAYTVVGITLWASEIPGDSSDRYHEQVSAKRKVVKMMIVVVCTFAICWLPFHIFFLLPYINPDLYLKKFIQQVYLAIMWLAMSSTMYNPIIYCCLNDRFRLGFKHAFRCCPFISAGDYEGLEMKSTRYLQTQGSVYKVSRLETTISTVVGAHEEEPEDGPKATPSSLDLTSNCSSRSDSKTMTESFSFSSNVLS

For the molecule `CNC(=O)c1ccc(N2C(=O)N(c3ccc(C#N)c(C(F)(F)F)c3)C(=O)C2(C)C)cc1F` [(MIV), 4-(3-(4-cyano-3-(trifluoromethyl)phenyl)-5,5-dimethyl-2,4-dioxoimidazolidin-1-yl)-2-fluoro-N-methylbenzamide], the inhibitory constant (Ki) at human androgen receptor (setting [1]) is 0.69 µM; at human androgen receptor (setting [2]) it was 0.97 µM; on human androgen receptor (setting [3]), 0.361 µM. The inhibition at 10 µM at Neurokinin NK3 (h) is -7%; at dopamine transporter (h), 7%; on Histamine H1 (h), -11%; on Neurokinin NK1 (h) it was -7%. Also, the “% Inhibition of Control Specific Binding @ 10 μM” value (shortened to “% Inhibition”) in the experiment on 5-HT (ns) is listed as 6%; in the experiment on P2X, 2%.

For the molecule `CC1(C)C(=O)N(c2ccc(C#N)c(C(F)(F)F)c2)C(=O)N1c1ccc(C(N)=O)c(F)c1` [(MIII), 4-(3-(4-cyano-3-(trifluoromethyl)phenyl)-5,5-dimethyl-2,4-dioxoimidazolidin-1-yl)-2-fluorobenzamide], the results for the inhibitory constant (Ki) on human androgen receptor (setting [1]), at human androgen receptor (setting [2]) and at human androgen receptor (setting [3]) were 0.83 µM, 1.5 µM and 0.314 µM, respectively. The inhibition at 10 µM at Neurokinin NK3 (h) was -2%; at dopamine transporter (h) it was 13%; on Histamine H1 (h), -2%; on Neurokinin NK1 (h) it was -9%. Also, the “% Inhibition” value in the experiment with 5-HT (ns) is −12%; with P2X, 2%.

On human androgen receptor (setting [3]), `CC1(C)C(=O)N(c2ccc(C#N)c(C(F)(F)F)c2)C(=S)N1c1ccc(C(=O)O)c(F)c1` [(MI), 4-(3-(4-cyano-3-(trifluoromethyl)phenyl)-5,5-dimethyl-4-oxo-2-thioxoimidazolidin-1-yl)-2-fluorobenzoic acid] gave a Ki of over 10 µM. For the same molecule, the inhibition at 10 µM on Neurokinin NK3 (h) is -11%; on dopamine transporter (h), 32%; on Histamine H1 (h), -8%; at Neurokinin NK1 (h), -7%. Further, the “% Inhibition” value was 21% in the experiment on 5-HT (ns) and 4% in the experiment with P2X.

`CC1(C)C(=O)N(c2ccc(C#N)c(C(F)(F)F)c2)C(=S)N1c1ccc(C(N)=O)c(F)c1` [(MII), 4-(3-(4-Cyano-3-(trifluoromethyl)phenyl)-5,5-dimethyl-4-oxo-2-thioxoimidazolidin-1-yl)-2-fluorobenzamide]: the inhibitory constant (Ki) is 0.074 µM at human androgen receptor (setting [1]), 0.051 µM on human androgen receptor (setting [2]) and 0.059 µM at human androgen receptor (setting [3]). Moreover, the inhibition at 10 µM on Neurokinin NK3 (h) was 3%; at dopamine transporter (h) it was 23%; at Histamine H1 (h), 2%; on Neurokinin NK1 (h) it was 9%. For the same molecule, the “% Inhibition” value came to 14% in the experiment with 5-HT (ns) and 4% with P2X.

The values above are taken from patent publication US8524755B2 (priority 2009, dated 2013).
